Assay: Static contact angle of liquid monomer on coated substrate (goniometer)
Type: physicochemical
Procedure: Contact angle and aspect ratio analysis: Contact angle measurements were performed using a Ramé-Hart Model 500 contact angle goniometer. A pipette was used to dispense 5 μL of liquid HEMA, 4VP, and DVB onto the substrate for static contact angle measurements.

[1] = 5 μL liquid monomer on flattened PPFDA base layer, n=5

| Molecule | contact angle [1] [°] | contact angle (5 μL liquid monomer on PDVB thin film coated substrate, n=4) [°] |
| --- | --- | --- |
| divinylbenzene [DVB] | 86.5±1.6 | – |
| C=Cc1ccncc1 [4VP, 4-vinylpyridine] | 80.6±1.7 | – |
| C=C(C)C(=O)OCCO [HEMA, 2-hydroxyethyl methacrylate] | 86.4±1.0 | 18.5±1.1 |
